The values that follow come from paper PMC12263422, “Cryo-EM structure of the human THIK-1 K2P K^+ channel reveals a lower Y gate regulated by lipids and anesthetics” (Nature Structural & Molecular Biology, 2025).

Where “and” joins values, the source holds several entries; their conditions need not be identical. Identical values can stand only once.

In this assay the target is T1, human K2P12.1 THIK-2 (THIK-2*) (Homo sapiens, UniProt Q9HB15, R11A/R12A/R14A/R15A/R16A).
T1 construct: expressed in transfected cells; host or cells: Xenopus oocytes (mRNA injection)
T1 sequence (Q9HB15 1-430 R11A/R12A/R14A/R15A/R16A): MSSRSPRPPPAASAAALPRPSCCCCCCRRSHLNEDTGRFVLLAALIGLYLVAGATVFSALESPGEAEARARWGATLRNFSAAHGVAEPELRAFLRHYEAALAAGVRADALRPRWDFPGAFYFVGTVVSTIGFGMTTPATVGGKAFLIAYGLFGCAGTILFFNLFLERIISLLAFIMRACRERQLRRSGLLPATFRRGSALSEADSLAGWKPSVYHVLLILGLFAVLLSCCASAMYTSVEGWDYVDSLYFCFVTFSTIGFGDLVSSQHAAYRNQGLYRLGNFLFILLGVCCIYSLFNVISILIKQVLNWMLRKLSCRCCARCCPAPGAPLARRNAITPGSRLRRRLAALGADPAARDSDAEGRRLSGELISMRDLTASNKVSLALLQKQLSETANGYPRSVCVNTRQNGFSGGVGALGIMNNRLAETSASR
Kind of assay: Inside-out excised patch recordings, oocytes, THIK-2* (ER-retention mutant). Type of assay: cell-based. Conditions: for Normalized currents: THIK-2* (unstimulated). From the text:
Human K2P13.1 THIK-1 (GenBank accession number: NM_022054) and human K2P12.1 THIK-2 (NM_022055.1) were used in this study. For functional expression studies, the respective K^+ channel subtype coding sequences were subcloned into the oocyte expression vector pSGEM or the dual-purpose expression vector pFAW[41] and verified by sequencing. All mutant channels were obtained by site-directed mutagenesis and verified by sequencing. To increase surface expression and macroscopic currents, measurements of THIK-2 channels used a mutated ER retention motif, (R11A R12A R14A R15A R16A; THIK-2*)[20]. Vector DNA was linearized with NheI or MluI, and mRNA was synthesized in vitro using the SP6 or T7 AmpliCap Max High Yield Message Maker Kit (Cellscript, USA) or HiScribe T7 ARCA mRNA Kit (New England Biolabs).
Two-electrode voltage–clamp (TEVC) studies were performed in Xenopus oocytes. All animal use conformed to the Guide for the Care and Use of Laboratory Animals (NIH Publication 85–23), and all experiments using Xenopus toads were approved by the local ethics panels. Oocytes were stored at 17 °C in ND96 recording solution composed of (in mM): 96 NaCl, 2 KCl, 1.8 CaCl2, 1 MgCl2, 5 HEPES (pH 7.5 adjusted with NaOH and HCl), supplemented with Na-pyruvate (275 mg L^–1), theophylline (90 mg L^–1) and gentamicin (50 mg L^–1). Oocytes were injected with 1 ng mRNA for WT or mutant channels, and were incubated for 24–48 h at 17 °C. Two-electrode voltage clamp recordings were then performed as previously described[42],[43]. For macroscopic patch–clamp measurements, oocytes were obtained as described above incubated at 17 °C in a solution containing (mM): 54 NaCl, 30 KCl, 2.4 NaHCO3, 0.82 MgSO4 ×7 H2O, 0.41 CaCl2, 0.33 Ca(NO3)2 ×4 H2O and 7.5 TRIS (pH 7.4 adjusted with NaOH and HCl) for 1–4 days before use. Excised patch recordings in inside-out configuration conditions were performed at room temperature. Patch pipettes were made from thick-walled borosilicate glass GB 200TF-8P (Science Products), had resistances of 0.2–0.5 MΩ (tip diameter, 10–25 µm) and filled with a pipette solution (in mM): 120 KCl, 10 HEPES and 3.6 CaCl2 (pH 7.4 adjusted with KOH and HCl). Intracellular bath solutions and compounds were applied to the cytoplasmic side of excised patches for the various K^+ channels through a gravity flow multi-barrel pipette system. The intracellular solution had the following composition (in mM): 120 KCl, 10 HEPES, 2 EGTA and 1 pyrophosphate (pH adjusted with KOH and HCl). Currents were recorded with an EPC10 amplifier (HEKA Electronics) and sampled at 10 kHz or higher, with filtering set to 3 kHz (–3 dB) or higher, as appropriate for sampling rate. For measurements of GPCR activation, whole-cell currents were recorded for THIK-1 in transiently transfected HEK-293 cells. Cells were stimulated by a ramp protocol between −100 and +60 mV (holding potential, −80 mV). The pipette solution was composed of (in mM): 140 KCl, 2 MgCl2, 1 CaCl2, 2.5 EGTA and 10 HEPES (pH 7.3 adjusted with KOH and HCl). The extracellular bath solution had the following composition (in mM): 135 NaCl, 5 KCl, 2 MgCl2, 2 CaCl2, 10 glucose and 10 HEPES pH (pH 7.3 adjusted with NaOH and HCl). Oxotremorine M (Oxo-M) was added to extracellular bath solution to obtain the final concentration. Single-channel currents were recorded with an Axopatch 200B amplifier through a Digidata 1440A digitizer (Molecular Devices). Data were filtered at 2 kHz and recorded at a 200-kHz sampling rate with the program Clampex (Molecular Devices). Pipette solution and bath solution for cell-attached recordings contained (in mM): 140 KCl, 2 MgCl2, 1 CaCl2 and 10 HEPES (pH 7.4 adjusted with KOH and HCl). For inside-out recordings, the bath solution contained (in mM): 140 KCl, 2 MgCl2, 1 CaCl2 and 10 HEPES (pH 7.2 adjusted with KOH and HCl). All experiments were conducted at room temperature. […]

The mark [1] stands for this setting: THIK-2* WT (unstimulated), mean.
Setting [2] is: THIK-2* WT, individual recordings.

Take `CCCCC[N+](CCCCC)(CCCCC)CCCCC` [TPenA, tetrapentylammonium]: the Normalized currents (0.1 µM TPenA) is 0.99; the Normalized currents (1 µM TPenA) is reported as 0.98; the Normalized currents (10 µM TPenA) came to 0.94; the Normalized currents (100 µM TPenA) came out at 0.71; the Normalized currents (1000 µM TPenA) came to 0.41; the Normalized currents (5000 µM TPenA) was 0.35. Besides, the “τ of 1 mM TPenA block” value is, setting by setting: under setting [1], 3.83 s; under setting [2], 5.710 s and 3.800 s and 2.660 s and 5.630 s and 4.260 s and 2.170 s and 2.560 s. Further, the “τ of 1 mM TPenA release” value is 3.40 s under setting [1]; 4.580 s and 3.250 s and 3.550 s and 3.310 s and 3.680 s and 2.030 s under setting [2].
